pKi: −log10 of the molar value. Counter-ions that a name gives are not always drawn.
Key:
[1] = biological target: T1, fibroblast activation protein (FAP; rhFAP, SLIN-tagged hFAP) (Homo sapiens, UniProt Q12884); assay: biochemical
T1 sequence (Q12884 35-760): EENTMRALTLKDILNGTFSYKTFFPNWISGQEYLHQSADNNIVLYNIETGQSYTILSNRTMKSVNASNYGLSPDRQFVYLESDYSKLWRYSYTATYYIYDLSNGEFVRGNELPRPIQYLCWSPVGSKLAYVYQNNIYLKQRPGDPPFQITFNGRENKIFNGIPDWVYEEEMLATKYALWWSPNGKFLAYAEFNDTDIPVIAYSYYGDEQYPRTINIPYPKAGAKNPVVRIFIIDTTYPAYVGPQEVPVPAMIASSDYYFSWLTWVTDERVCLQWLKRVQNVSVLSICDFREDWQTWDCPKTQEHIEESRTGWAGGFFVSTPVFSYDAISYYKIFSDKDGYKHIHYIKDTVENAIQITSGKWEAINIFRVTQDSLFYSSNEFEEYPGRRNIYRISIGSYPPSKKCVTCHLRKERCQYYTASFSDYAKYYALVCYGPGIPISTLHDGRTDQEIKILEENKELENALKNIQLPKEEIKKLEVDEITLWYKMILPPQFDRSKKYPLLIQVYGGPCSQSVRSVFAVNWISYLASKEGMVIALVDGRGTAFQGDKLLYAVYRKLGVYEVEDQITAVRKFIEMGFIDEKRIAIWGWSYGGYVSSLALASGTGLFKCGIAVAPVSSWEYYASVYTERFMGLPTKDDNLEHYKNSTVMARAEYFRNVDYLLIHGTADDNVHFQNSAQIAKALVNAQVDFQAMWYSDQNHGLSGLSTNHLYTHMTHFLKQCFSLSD

[2] = biological target: T1, fibroblast activation protein (FAP; rhFAP, SLIN-tagged hFAP); conditions: 2 µM; inhibitor

SMILES | pKi [1] | Relative inhibition (%), activity assay [2] [%]
CCc1c(Cl)c(O)c(Cl)c(O)c1C(=O)O[C@H]1[C@H](O)[C@H](OC)[C@H](OC/C2=C\C=C\C[C@H](O)/C(C)=C/[C@H](CC)[C@@H](O[C@@H]3OC(C)(C)[C@@H](OC(=O)C(C)C)[C@H](O)[C@@H]3O)/C(C)=C/C(C)=C/C[C@@H]([C@@H](C)O)OC2=O)O[C@@H]1C [Fidaxomicin] | 5.16 | 10
CN1CCN(c2ccc(Nc3ncc4cc5n(c4n3)C3(CCCCC3)CNC5=O)nc2)CC1 [Trilaciclib (hydrochloride)] | 5.23 | 19
C[n+]1cc2c3c(ccc2c2ccc4cc5c(cc4c21)OCO5)OCO3 [Sanguinarine (chloride)] | 5.14 | 13
CC(=O)[C@]1(O)Cc2c(O)c3c(c(O)c2[C@@H](O[C@H]2C[C@H](N)[C@H](O)[C@H](C)O2)C1)C(=O)c1ccccc1C3=O [Idarubicin (hydrochloride)] | 5.44 | 19
CCOc1nc2cccc(C(=O)OCc3oc(=O)oc3C)c2n1Cc1ccc(-c2ccccc2-c2noc(=O)[nH]2)cc1 [Azilsartan medoxomil] | 5.41 | 11
CCCC(=O)OCOC(=O)C1=C(C)NC(C)=C(C(=O)OC)C1c1cccc(Cl)c1Cl (stereo not shown) [Clevidipine] | 5.77 | 35
Cc1cnc(C(=O)N[C@H]2CCCCC/C=C\[C@@H]3C[C@@]3(C(=O)NS(=O)(=O)C3CC3)NC(=O)[C@@H]3C[C@@H](Oc4nc5ccccc5c5ccccc45)CN3C2=O)cn1 [Paritaprevir] | 5.01 | 35
CCN(CC)CCOc1ccc2c(c1)C(=O)c1cc(OCCN(CC)CC)ccc1-2 [Tilorone (dihydrochloride)] | 5.54 | 30
Cc1cc(-c2ccc(/N=N/c3ccc4c(S(=O)(=O)O)cc(S(=O)(=O)O)c(N)c4c3O)c(C)c2)ccc1/N=N/c1ccc2c(S(=O)(=O)O)cc(S(=O)(=O)O)c(N)c2c1O [Evans Blue] | 5.24 | 21
CCN1CCN(C(=O)N[C@@H](C(=O)N[C@@H]2C(=O)N3C(C(=O)O)=C(CSc4nnnn4C)CS[C@H]23)c2ccc(O)cc2)C(=O)C1=O [Cefoperazone (sodium salt)] | 5.41 | 25
CCOc1ccc(Nc2ccc(/C(=C3/C=CC(=[N+](CC)Cc4cccc(S(=O)(=O)[O-])c4)C=C3C)c3ccc(N(CC)Cc4cccc(S(=O)(=O)O)c4)cc3C)cc2)cc1 [Brilliant blue G-250] | 6.05 | 28
COc1ccc2nc3cc(Cl)ccc3c(Nc3cc(CN4CCCC4)c(O)c(CN4CCCC4)c3)c2n1 [Pyronaridine (tetraphosphate)] | 5.15 | 19
CC(=C(CCOC(=O)C(C)C)SSC(CCOC(=O)C(C)C)=C(C)N(C=O)Cc1cnc(C)nc1N)N(C=O)Cc1cnc(C)nc1N (stereo in doubt) [Sulbutiamine] | 5.24 | 15
Cc1ccc(C(=O)Nc2ccc(S(=O)(=O)O)c3cc(S(=O)(=O)O)cc(S(=O)(=O)O)c23)cc1NC(=O)c1cccc(NC(=O)Nc2cccc(C(=O)Nc3cc(C(=O)Nc4ccc(S(=O)(=O)O)c5cc(S(=O)(=O)O)cc(S(=O)(=O)O)c45)ccc3C)c2)c1 [Suramin (sodium salt)] | 5.04 | 12
CCOC(=O)n1ccn(C)c1=S [Carbimazole] | 5.10 | 26
CC(=O)OCC1=C(C(=O)O)N2C(=O)[C@@H](NC(=O)CSc3ccncc3)[C@H]2SC1 [Cephapirin (sodium)] | 5.12 | 18
CC/C=C\C/C=C\C/C=C\C/C=C\C/C=C\C/C=C\CCC(=O)O [Docosahexaenoic acid] | 5.26 | 10
